Data as given in ChEMBL document CHEMBL3044985, “Novel antitubercular diallyl/dibenzylthiosemicarbazones endowed with high activity toward multi-drug-resistant tuberculosis” (Med Chem Res, 2012).
Converted amounts (≈) assume the structure as drawn.

What was measured:
[1] = tested on: Mycobacterium tuberculosis; assay: Antitubercular activity against Mycobacterium tuberculosis H37Rv by NCCLS agar dilution method; format: functional
[2] = Cytotoxicity against Chlorocebus aethiops (African green monkey) Vero cells assessed as cell viability after 72 hr by MTT assay; format: cell-based; details: chlorocebus sabaeus
[3] = Selectivity index, ratio of CC50 for african green monkey Vero cells to MIC for Mycobacterium tuberculosis H37Rv; format: toxicity, cell-based; details: read-out: Selectivity Index
[4] = tested on: Mycobacterium tuberculosis; assay: Ratio of ethambutol MIC to compound MIC for Mycobacterium tuberculosis H37Rv; format: functional
[5] = tested on: Mycobacterium tuberculosis; assay: Ratio of ofloxacin MIC to compound MIC for Mycobacterium tuberculosis H37Rv; format: functional
[6] = tested on: Mycobacterium tuberculosis; assay: Ratio of isoniazid MIC to compound MIC for Mycobacterium tuberculosis H37Rv; format: functional

Compound	MIC [1] [µM]	CC50 at 72 h [2] [µM]	other results
S=C(NN=C(c1ccccc1)c1ccccc1)N(Cc1ccccc1)Cc1ccccc1	3.58 (≈ 1.56 µg/mL)	143	
C=CCN(CC=C)C(=S)N/N=C(/C)CC	111 (≈ 25 µg/mL)		
CC/C(C)=N\NC(=S)N(Cc1ccccc1)Cc1ccccc1	76.8 (≈ 25 µg/mL)		
O=[N+]([O-])c1ccc(/C=N\NC(=S)N(Cc2ccccc2)Cc2ccccc2)cc1	0.98 (≈ 0.396 µg/mL)	< 155	
C=CCN(CC=C)C(=S)N/N=C\c1ccc(Cl)cc1	5.3 (≈ 1.56 µg/mL)	213	
S=C(N/N=C\c1ccc(Cl)cc1)N(Cc1ccccc1)Cc1ccccc1	1.98 (≈ 0.78 µg/mL)	159	
C=CCN(CC=C)C(=S)N/N=C\c1ccccc1C	22.9 (≈ 6.25 µg/mL)	> 229	
Cc1ccccc1/C=N\NC(=S)N(Cc1ccccc1)Cc1ccccc1	8.38 (≈ 3.13 µg/mL)	167	
C=CCN(CC=C)C(=S)N/N=C\c1ccccc1O	45.4 (≈ 12.5 µg/mL)		
Oc1ccccc1/C=N\NC(=S)N(Cc1ccccc1)Cc1ccccc1	8.33 (≈ 3.13 µg/mL)	166	
C=CCN(CC=C)C(=S)N/N=C\c1ccc([N+](=O)[O-])o1	2.65 (≈ 0.78 µg/mL)	< 212	
O=[N+]([O-])c1ccc(/C=N\NC(=S)N(Cc2ccccc2)Cc2ccccc2)o1	0.5 (≈ 0.197 µg/mL)	158	selectivity ratio [3]: > 316; Ratio [4]: 9.4; Ratio [5]: 4.2; Ratio [6]: 1.3
C=CCN(CC=C)C(=S)N/N=C(/C)c1ccccc1	22.9 (≈ 6.25 µg/mL)	229	
C/C(=N/NC(=S)N(Cc1ccccc1)Cc1ccccc1)c1ccccc1	16.7 (≈ 6.25 µg/mL)	167	
C=CCN(CC=C)C(=S)N/N=C(/C)c1ccccc1O	21.6 (≈ 6.25 µg/mL)	216	
C/C(=N/NC(=S)N(Cc1ccccc1)Cc1ccccc1)c1ccccc1O	8.03 (≈ 3.13 µg/mL)	160	
C=CCN(CC=C)C(=S)N/N=C(/C)c1ccc(O)cc1	21.6 (≈ 6.25 µg/mL)	216	

Compound	MIC [1] [µM]	CC50 at 72 h [2] [µM]	other results
C/C(=N/NC(=S)N(Cc1ccccc1)Cc1ccccc1)c1ccc(O)cc1	16.1 (≈ 6.26 µg/mL)	160	
C=CCN(CC=C)C(=S)N/N=C(/C)c1ccc(N)cc1	43.3 (≈ 12.5 µg/mL)		
C/C(=N/NC(=S)N(Cc1ccccc1)Cc1ccccc1)c1ccc(N)cc1	16.1 (≈ 6.25 µg/mL)	161	
C=CCN(CC=C)C(=S)N/N=C(/C)c1ccc([N+](=O)[O-])cc1	9.83 (≈ 3.13 µg/mL)	< 196	
C/C(=N/NC(=S)N(Cc1ccccc1)Cc1ccccc1)c1ccc([N+](=O)[O-])cc1	3.72 (≈ 1.56 µg/mL)	< 149	
C=CCN(CC=C)C(=S)N/N=C(/C)c1ccc(F)cc1	10.7 (≈ 3.13 µg/mL)	214	
C/C(=N/NC(=S)N(Cc1ccccc1)Cc1ccccc1)c1ccc(F)cc1	7.99 (≈ 3.13 µg/mL)	160	
C=CCN(CC=C)C(=S)NN=C(c1ccccc1)c1ccccc1	9.33 (≈ 3.13 µg/mL)	186	
C=CCN(CC=C)C(=S)N/N=C\c1ccccc1	48.2 (≈ 12.5 µg/mL)		
S=C(N/N=C\c1ccccc1)N(Cc1ccccc1)Cc1ccccc1	17.4 (≈ 6.26 µg/mL)	174	
C=CCN(CC=C)C(=S)N/N=C\c1ccccc1[N+](=O)[O-]	5.12 (≈ 1.56 µg/mL)	205	
O=[N+]([O-])c1ccccc1/C=N\NC(=S)N(Cc1ccccc1)Cc1ccccc1	3.85 (≈ 1.56 µg/mL)	< 155	
C=CCN(CC=C)C(=S)N/N=C\c1ccc([N+](=O)[O-])cc1	2.56 (≈ 0.779 µg/mL)	< 205	
CC[C@@H](CO)NCCN[C@@H](CC)CO [ETHAMBUTOL]	4.71 (≈ 0.962 µg/mL)	> 188	
NNC(=O)c1ccncc1 [ISONIAZID]	0.66 (≈ 0.0905 µg/mL)	> 456	
CC1COc2c(N3CCN(C)CC3)c(F)cc3c(=O)c(C(=O)O)cn1c23 (configuration not stated) [OFLOXACIN]	2.13 (≈ 0.77 µg/mL)	> 155	
CO[C@H]1/C=C/O[C@@]2(C)Oc3c(C)c(O)c4c(O)c(c(/C=N/N5CCN(C)CC5)c(O)c4c3C2=O)NC(=O)/C(C)=C\C=C\[C@H](C)[C@H](O)[C@@H](C)[C@@H](O)[C@@H](C)[C@H](OC(C)=O)[C@@H]1C [RIFAMPIN]	0.23 (≈ 0.189 µg/mL)	> 75.9	
